Data set [1] can be described thus: Concentration of bioactive compound in oil enriched by the process of the invention. The format is physicochemical. Here is the method: (§1) Spectrophotometric analyses were performed using an ONDA UV/VIS Spectrophotometer, Model UV-31 SCAN. The oil samples were suitably diluted in RPE ethanol supplied by Carlo Erba. Scans were performed in the wavelength range of 600 nm and 300 nm, with a step size of 1 nm, using optical glass cuvettes.
(§2) HPLC analyses were performed using an Agilent HPLC Chromatograph, 1100 Series, equipped with an Agilent Technologies 1200 Series DAD UV/VIS detector, using an Agilent Eclipse plus 95 Å C18 Column, (100 mm—4.6 mm, 3.5 μm). Acetonitrile, Methanol, Water and Formic Acid for HPLC supplied by Sigma-Aldrich were used for the mobile phase.
At the end of the process, 5 mL of enriched oil was recovered with a concentration expressed as mass of lycopene per mass of oil of 35 mg/100 g, a concentration measured at 25° C. after centrifuging the oil for 15 minutes at 10,000 RPM.

Data set [2] in a line: Comparison of process of the invention with maceration in oil, UV/VIS spectra. The format is physicochemical. Here is the method: as §1
(§3) In order to compare the efficacy of the method of the invention with the traditional method of enrichment by maceration in oil, enrichment of vegetable oils was carried out using both methods. Subsequently, equal amounts of oil obtained using the two methods were solubilised in a suitable solvent, respecting the same dilution ratio, and the resulting solutions were subjected to chromatographic and spectrophotometric analysis.

A short description of data set [3]: Comparison of process of the invention with maceration in oil, HPLC chromatograms. The format is physicochemical. The conditions noted are these: Argan oil; Example 1 versus maceration of pure lycopene powder in oil. Here is the method:
as §2, §3

The conditions of data set [4]: traditional preparation techniques, literature, cited from earlier work.

Each structure is given as a SMILES string. Read-outs that look alike come from different tables or passages of the source.

For the compound `COc1cc(/C=C/C(=O)CC(=O)/C=C/c2ccc(O)c(OC)c2)ccc1O` [curcumin], the “concentration expressed as mass of Curcumin on mass of oil” value in data set [1] (wheat germ oil enriched per Example 2 (R1234ze, 28° C., 4.5 atm, 355 minutes), measured at 25° C. after centrifugation 15 minutes at 10,000 RPM) amounted to 1420 mg/100 g.
Turning to `CC(C)=CCC/C(C)=C/C=C/C(C)=C/C=C/C(C)=C/C=C/C=C(C)/C=C/C=C(C)/C=C/C=C(\C)CCC=C(C)C` [lycopene], in data set [2] (Argan oil, Example 1 versus maceration of pure lycopene powder in oil), the “lycopene concentration (absorbance at 502 nm), process of the invention versus traditional methodology” value is “approximately 3.3 times”. Moreover, in data set [3], the “lycopene concentration (HPLC peak area), process of the invention versus conventional method” value was “about 3.3 times”. In data set [4], the “maximum concentration in vegetable oil” value is listed as 7-8 mg per 100 g of oil. The “concentration expressed as mass of lycopene per mass of oil” value in data set [1] (refined argan oil enriched per Example 1 (R1234ze, 28° C., 4.5 atm, 120 minutes), measured at 25° C. after centrifuging 15 minutes at 10,000 RPM) was found to be 35 mg/100 g.
In the case of `COc1cc(CNC(=O)CCCC/C=C/C(C)C)ccc1O` [capsaicin], in data set [2] (sunflower oil, Example 3 versus maceration), the “capsaicin concentration (absorbance at 280 nm), innovative methodology versus traditional methodology” value is reported as “approximately 6 times”. In addition, the “maximum concentration in vegetable oil” value in data set [4] (listed as capsicin) is recorded as ≤ 10 mg per 100 g of oil; in data set [4] it was “no more than 10 mg per 100 g of oil”. The “concentration expressed as mass of Capsaicin on mass of oil” value in data set [1] (deodorised sunflower oil enriched per Example 3 (R134a, 35° C., 7.66 atm, 90 minutes), measured at 25° C. after centrifugation 15 minutes at 10,000 RPM) was 61.2 mg/100 g.
